Publication PMC6199744, “Development of Chemical Proteomics for the Folateome and Analysis of the Kinetoplastid Folateome” (ACS Infectious Diseases, 2018)
Several values for one entry are separate records, joined by “and”; a condition that tells them apart may be missing. Equal values may be shown once. Read-outs that look alike come from different tables or passages of the source.

Test system: L. major lysate proteins
Assay: Multitargeted bead mixture chemoproteomics, single concentration competition, proteome-wide
Format: binding

NCCCNc1ccc(C(=O)NC(CCC(=O)O)C(=O)O)cc1 (stereo not drawn) [compound 7]
fold change: 0.99 | fold change relative to vehicle control: 1.03 and 1.04 | fold change vs vehicle control: 1.19 and 1.04 and 1.12 | protein inhibition, any captured protein (Figure 8) (bead mixture, L. major lysate): no protein inhibition >30% | fold change vs vehicle control (protein CLI00016468.1 KINETOPLASTID MEMBRANE PROTEIN-11): 0.73 | fold change vs vehicle control (protein LINJ.03.0240 RIBOSOMAL PROTEIN L38, PUTATIVE): 1.02 | fold change vs vehicle control (protein LINJ.11.0780 40S RIBOSOMAL PROTEIN S21, PUTATIVE): 1.05 | fold change (protein LINJ.11.0960 40S RIBOSOMAL PROTEIN S5, vehicle control = 1): 0.98 | fold change vs vehicle control (protein LINJ.13.0990 […] SUBUNIT 2, PUTATIVE): 1.26 | fold change vs vehicle control (protein LINJ.15.0330 RIBONUCLEOPROTEIN P18, MITOCHONDRIAL PRECURSOR, PUTATIVE): 0.97 | fold change (protein LINJ.19.0090 FIBRILLARIN, PUTATIVE, vehicle control = 1): 1.04 | fold change relative to vehicle control (protein LINJ.23.0860, 3-KETOACYL-COA THIOLASE, PUTATIVE): 1.02 | fold change relative to vehicle control (protein LINJ.24.2300, 60S RIBOSOMAL PROTEIN L12, PUTATIVE): 1.04 | fold change vs vehicle control (protein LINJ.25.2230 SUCCINYL-COA SYNTHETASE ALPHA SUBUNIT, PUTATIVE): 0.97 | fold change vs vehicle control (protein LINJ.26.1630 40S RIBOSOMAL PROTEIN S33, PUTATIVE): 1.04 | fold change vs vehicle control (protein LINJ.28.1100 RIBOSOMAL PROTEIN S20, PUTATIVE): 1.02 | fold change relative to vehicle control (protein LINJ.28.1940, REPLICATION FACTOR A, 51KDA SUBUNIT, PUTATIVE): 1.1 | fold change (protein LINJ.28.2280 DYNEIN LIGHT CHAIN LC6, FLAGELLAR OUTER ARM, PUTATIVE, vehicle control = 1): 0.9 | fold change (protein LINJ.28.2870 PROTEIN PHOSPHATASE 4 CATALYTIC SUBUNIT, PUTATIVE, vehicle control = 1): 0.91 | fold change relative to vehicle control (protein LINJ.31.1600, […] OXIDASE VIII (COX VIII), PUTATIVE): 1.19 | fold change relative to vehicle control (protein LINJ.33.1730, CYCLOPHILIN 4, PUTATIVE): 1.08 | fold change vs vehicle control (protein LINJ.34.0670 PROTEASOME REGULATORY NON-ATP-ASE SUBUNIT 11, PUTATIVE,19S PROTEASOME REGULATORY SUBUNIT): 0.97 | fold change vs vehicle control (protein LINJ.36.0780 PROTEIN KINASE, PUTATIVE,MITOGEN-ACTIVATED PROTEIN KINASE, PUTATIVE): 1.26 | fold change relative to vehicle control (protein LINJ.36.3960, BASIC TRANSCRIPTION FACTOR 3A, PUTATIVE): 1.58 | fold change relative to vehicle control (protein LINJ.36.4080, HY[…], CONSERVED): 1.32 | fold change (protein LINJ.36.4180 HS1VU COMPLEX PROTEOLYTIC SUBUNIT-LIKE, vehicle control = 1): 0.93 | fold change vs vehicle control (protein LINJ.[…] LONG-CHAIN-FATTY-ACID-COA LIGASE, PUTATIVE): 0.9 | fold change (protein LMJF.01.0570 TRIC[…], PUTATIVE, vehicle control = 1): 0.92 | fold change relative to vehicle control (protein LMJF.03.0200, DELTA-1-PYRROLINE-5-CARBOXYLATE DEHYDROGENASE, PUTATIVE): 1.07 | fold change (protein LMJF.03.0230 LONG CHAIN FATTY ACYL COA SYNTHETASE, PUTATIVE, vehicle control = 1): 1 | fold change (protein LMJF.03.0980 […] 2 ALPHA SUBUNIT, PUTATIVE, vehicle control = 1): 1.01 | fold change vs vehicle control (protein LMJF.04.0630 HY[…], CONSERVED): 1.07 | fold change vs vehicle control (protein LMJF.04.1230 actin): 1.04 | fold change (protein LMJF.05.0100 PHOSPHOPROTEIN PHOSPHATASE, PUTATIVE, vehicle control = 1): 0.91 | fold change (protein LMJF.05.0280 PROTEIN TYROSINE PHOSPHATASE, PUTATIVE, vehicle control = 1): 0.99 | fold change (protein LMJF.05.0510 ATPASE ALPHA SUBUNIT, vehicle control = 1): 1.08 | fold change (protein LMJF.05.1040 STOMATIN-LIKE PROTEIN, vehicle control = 1): 0.92 | fold change (protein LMJF.06.0650 LANOSTEROL SYNTHASE, PUTATIVE, vehicle control = 1): 0.95 | fold change vs vehicle control (protein LMJF.07.0700 TOPOISOMERASE-RELATED FUNCTION PROTEIN-LIKE PROTEIN): 1.1 | fold change (protein LMJF.07.1000 RNA BINDING PROTEIN-LIKE PROTEIN, vehicle control = 1): 0.88 | fold change relative to vehicle control (protein LMJF.07.1140, PEPTIDE […] REDUCTASE-LIKE): 1.06 | fold change (protein LMJF.08.0510 RIBOSE-PHOSPHATE PYROPHOSPHOKINASE, PUTATIVE, vehicle control = 1): 0.91 | fold change vs vehicle control (protein LMJF.08.0550 TRANSLATION INITIATION FACTOR-LIKE PROTEIN): 0.9 | fold change relative to vehicle control (protein LMJF.08.1030, cathepsin L-like protease): 1.03 | fold change vs vehicle control (protein LMJF.08.1100 HYPOTHETICAL PROTEIN, CONSERVED): 0.98 | fold change vs vehicle control (protein LMJF.09.1010 HYPOTHETICAL PROTEIN, CONSERVED): 0.75 | fold change relative to vehicle control (protein LMJF.09.1120, MIT[…] BINDING PROTEIN 2,MRP2, GBP25): 1.14 | fold change vs vehicle control (protein LMJF.09.1260 HYPOTHETICAL PROTEIN, CONSERVED): 0.95 | fold change (protein LMJF.10.0210 NUCLEOLAR PROTEIN, PUTATIVE, vehicle control = 1): 1.01 | fold change vs vehicle control (protein LMJF.10.0310 PROTEIN TRANSPORT PROTEIN SEC23, PUTATIVE): 1.31 | fold change (protein LMJF.11.0590 3-[…]-COA C[…] SUBUNIT, PUTATIVE, vehicle control = 1): 1 | fold change relative to vehicle control (protein LMJF.11.0630, AMINOPEPTIDASE, PUTATIVE,METALLO-PEPTIDASE, CLAN MF, FAMILY M17): 0.94 | fold change vs vehicle control (protein LMJF.11.1050 PRETRA[…], ALPHA SUBUNIT, PUTATIVE,SEC61-LIKE (PRETRA[…]) PROTEIN, PUTATIVE): 1.07 | fold change (protein LMJF.11.1160 PROTEIN TRANSPORT PROTEIN SEC31, PUTATIVE, vehicle control = 1): 1.26 | fold change (protein LMJF.12.0030 PROTEASOME BETA-1 SUBUNIT, PUTATIVE, vehicle control = 1): 0.94 | fold change vs vehicle control (protein LMJF.12.0210 […] […]1L8 3, PUTATIVE): 0.95 | fold change relative to vehicle control (protein LMJF.12.0530, GLUCOSE-6-PHOSPHATE ISOMERASE): 1.09 | fold change (protein LMJF.12.0630 ALANINE AMINOTRANSFERASE, vehicle control = 1): 0.93 | fold change vs vehicle control (protein LMJF.13.1230 40S RIBOSOMAL PROTEIN S4, PUTATIVE): 1.05 | fold change vs vehicle control (protein LMJF.14.0310 PROTEASOME ALPHA 3 SUBUNIT, PUTATIVE): 0.96 | fold change (protein LMJF.14.0660 FATTY ACID ELONGASE, PUTATIVE, vehicle control = 1): 1.02 | fold change (protein LMJF.14.0670 FATTY ACID ELONGASE, PUTATIVE, vehicle control = 1): 0.94 | fold change vs vehicle control (protein LMJF.14.0680 FATTY ACID ELONGASE, PUTATIVE): 1.14 | fold change (protein LMJF.14.0990 ADP/ATP MIT[…]-LIKE PROTEIN, vehicle control = 1): 1.25 | fold change vs vehicle control (protein LMJF.14.1160 ENOLASE): 1.02 | fold change (protein LMJF.14.1440 HYPOTHETICAL PROTEIN, CONSERVED (cytoskeleton associated protein, putative), vehicle control = 1): 0.82
